Active and inactive are the calls of the source. No cut-off for these calls is given here.
Legend:
[1] = system: H22; test: Antiproliferative activity against mouse H22 cells assessed as reduction in cell viability incubated for 72 hrs by CCK-8 assay; type: functional, cell-based; details: H22, 72 h
[2] = system: H22; test: Select factor, ratio of test compound IC50 to 5-fluoro-N-(3-hydroxy-4-methoxybenzyl)-2-morpholinobenzamide IC50 for antiproliferative activity against mouse H22 cells assessed as reduction in cell viability incubated for 72 hrs by CCK-8 assay; type: functional
[3] = system: K562; test: Select factor, ratio of test compound IC50 to 5-fluoro-N-(3-hydroxy-4-methoxybenzyl)-2-morpholinobenzamide IC50 for antiproliferative activity against human K562 cells assessed as reduction in cell viability incubated for 72 hrs by CCK-8 assay; type: functional
[4] = Select factor, ratio of test compound IC50 to 5-fluoro-N-(3-hydroxy-4-methoxybenzyl)-2-morpholinobenzamide IC50 for antiproliferative activity against human THLE-2 cells assessed as reduction in cell viability incubated for 72 hrs by CCK-8 assay; type: toxicity, cell-based; details: read-out: Ratio IC50
[5] = Prodrug release in PBS buffer assessed as half release time of 5-fluoro-N-(3-hydroxy-4-methoxybenzyl)-2-morpholinobenzamide in presence of palladium resins at 75 uM by HPLC analysis; type: ADME
[6] = system: HepG2; test: Cytotoxicity against human HepG2 cell assessed as parent drug 5-fluoro-N-(3-hydroxy-4-methoxybenzyl)-2-morpholinobenzamide mediated decrease in cell viability at 100 nM in presence of palladium resins incubated for 72 hrs by CCK-8 assay; type: functional, cell-based
[7] = system: K562; test: Induction of cell cycle arrest in human K562 cells assessed as accumulation of cells at S phase at 80 nM incubated for 72 hrs in presence of palladium resins by PI staining based flow cytometric analysis ( Rvb = 14.04 %); type: functional
[8] = system: K562; test: Induction of cell cycle arrest in human K562 cells assessed as accumulation of cells at G2 phase at 80 nM incubated for 72 hrs in presence of palladium resins by PI staining based flow cytometric analysis ( Rvb = 8.5 %); type: functional
[9] = system: K562; test: Induction of cell cycle arrest in human K562 cells assessed as accumulation of cells at G1 phase at 80 nM incubated for 72 hrs by PI staining based flow cytometric analysis ( Rvb = 77.46 %); type: functional
[10] = system: K562; test: Induction of cell cycle arrest in human K562 cells assessed as accumulation of cells at G2 phase at 80 nM incubated for 72 hrs by PI staining based flow cytometric analysis ( Rvb = 8.5 %); type: functional
[11] = system: K562; test: Induction of cell cycle arrest in human K562 cells assessed as accumulation of cells at G2/M phase at 80 nM incubated for 72 hrs by PI staining based flow cytometric analysis ( Rvb = 8.5 %); type: functional
[12] = system: K562; test: Induction of cell cycle arrest in human K562 cells assessed as accumulation of cells at G2/M phase at 80 nM incubated for 72 hrs in presence of palladium resins by PI staining based flow cytometric analysis ( Rvb = 8.5 %); type: functional
[13] = system: K562; test: Induction of apoptosis in human K562 cells assessed as chromatin condensation at 80 nM incubated for 72 hrs in presence of palladium resins by Hoechst 33342 staining based fluorescent microscopic analysis; type: functional, cell-based
[14] = system: K562; test: Induction of apoptosis in human K562 cells assessed as necrotic cells at 80 nM incubated for 72 hrs by Annexin V-APC staining based flow cytometric analysis (reference value: 1.65%); type: functional
[15] = system: K562; test: Induction of apoptosis in human K562 cells assessed as late apoptotic cells at 80 nM incubated for 72 hrs in presence of palladium resins by Annexin V-APC staining based flow cytometric analysis (reference value: 1.36%); type: functional
[16] = system: K562; test: Induction of apoptosis in human K562 cells assessed as necrotic cells at 80 nM incubated for 72 hrs in presence of palladium resins by Annexin V-APC staining based flow cytometric analysis (reference value: 1.65%); type: functional
[17] = target: T1, Tubulin (Homo sapiens) (UniProt P68371+Q9H4B7+P0DPH7+P68366+Q13509+Q71U36+P04350+Q3ZCM7+P07437+P68363+Q9BQE3+Q6PEY2+Q13885+Q9BVA1+Q9BUF5); test: Disruption of microtubule organization in human K562 cells assessed as appearance of fibrous microtubules at 80 nM incubated for 72 hrs by DAPI staining based confocal microscopic analysis; type: cell-based
[18] = system: Mitochondrial membrane; test: Induction of mitochondrial membrane potential loss in human K562 cells assessed as increase in green fluorescence intensity at 80 nM incubated for 72 hrs in presence of palladium resins by JC-1 staining based flow cytometric analysis (reference value: 6.74%); type: cell membranes
[19] = system: Mitochondrial membrane; test: Induction of mitochondrial membrane potential loss in human K562 cells assessed as green fluorescence intensity incubated for 72 hrs by JC-1 staining based flow cytometric analysis (reference value: 6.74%); type: cell membranes
[20] = system: K562; test: Induction of ROS generation in human K562 cells assessed as increase in DCF-positive cells at 80 nM incubated for 72 hrs in presence of palladium resins by DCF-DA staining based flow cytometric analysis (reference value: 7.67%); type: functional
[21] = system: K562; test: Induction of ROS generation in human K562 cells assessed as increase in DCF-positive cells incubated for 72 hrs by DCF-DA staining based flow cytometric analysis (reference value: 7.67%); type: functional
[22] = system: HUVEC; test: Antivascular activity against HUVEC cells assessed as inhibition of cell migration at 80 nM incubated for 24 hrs by phase contrast microscopic analysis; type: functional, cell-based; details: Homo sapiens
[23] = system: HUVEC; test: Antivascular activity against HUVEC cells assessed as inhibition of capillary tube formation at 80 nM incubated for 6 hrs in presence of palladium resins by inverted microscopic analysis; type: functional, cell-based; details: Homo sapiens
[24] = target: T1, Tubulin (Homo sapiens); test: Inhibition of tubulin polymerization in human HepG2 cells assessed as decrease in alpha tubulin expression at 80 nM incubated for 24 hrs in presence of palladium resins by Western blotting analysis; type: cell-based
[25] = target: T1, Tubulin (Homo sapiens); test: Inhibition of tubulin polymerization in human K562 cells assessed as decrease in alpha tubulin expression at 80 nM incubated for 24 hrs in presence of palladium resins by Western blotting analysis; type: cell-based
[26] = target: T1, Tubulin (Homo sapiens); test: Inhibition of tubulin polymerization in human K562 cells assessed as decrease in beta tubulin expression at 80 nM incubated for 24 hrs in presence of palladium resins by Western blotting analysis; type: cell-based
[27] = system: HepG2; test: Antitumor activity against human HepG2 cells xenografted in Balb/c mouse assessed as tumor growth inhibition at 20 mg/kg, iv administered daily in presence of palladium resins for 14 days relative to control; type: functional; details: HepG2, 336 h, time 14 day
[28] = system: HepG2; test: Antitumor activity against human HepG2 cells xenografted in Balb/c mouse assessed as cell necrosis at 20 mg/kg, iv administered daily for 14 days in presence of palladium resins by H and E staining based analysis; type: functional, organism-based; details: time 14.0 day
[29] = Toxicity in Balb/c mouse xenografted with human HepG2 cells assessed as effect on lung at 20 mg/kg, iv administered daily in presence of palladium resins for 14 days by H and E staining based analysis; type: organism-based; details: in vivo, 336 h, time 14 day
[30] = Toxicity in Balb/c mouse xenografted with human HepG2 cells assessed as effect on kidney at 20 mg/kg, iv administered daily in presence of palladium resins for 14 days by H and E staining based analysis; type: organism-based; details: in vivo, 336 h, time 14 day

C#CCOc1cc(CNC(=O)c2cc(F)ccc2N2CCOCC2)ccc1OC
IC50 [1]: 805 nM | Ratio IC50 [2]: 39.6 | Ratio IC50 [3]: 69.1 | selectivity ratio at 72 h [4]: 66.2 | t1/2 [5]: 7.2 h | Activity [6]: Active | Activity [7]: 29.11% | Activity [8]: 12.3% | Activity [9]: 67.39% | Activity [10]: 8.97% | Activity [11]: 8.97% | Activity [12]: 12.3% | Activity [13]: Active | Activity [14]: 1.26% | Activity [15]: 27.82% | Activity [16]: 2.95% | Activity [17]: Active | Activity [18]: 54.2% | Activity [19]: 8.08% | Activity [20]: 54.85% | Activity [21]: 8.22% | Activity [22]: inactive | Activity [23]: Active | inhibition [24]: Active | inhibition [25]: Active | inhibition [26]: Active | inhibition in vivo at 20 mg/kg [27]: 63.2% | Activity [28]: Active | Activity [29]: Non-toxic | Activity [30]: Non-toxic

— ChEMBL document CHEMBL6078643, “Palladium-Mediated Bioorthogonal System for Prodrug Activation of N-Benzylbenzamide-Containing Tubulin Polymerization Inhibitors for the Treatment of Solid Tumors” (J Med Chem, 2024)
